Molecular target: T1, BFT (Bacteroides fragilis, UniProt P54355)
T1 sequence (P54355 26-405): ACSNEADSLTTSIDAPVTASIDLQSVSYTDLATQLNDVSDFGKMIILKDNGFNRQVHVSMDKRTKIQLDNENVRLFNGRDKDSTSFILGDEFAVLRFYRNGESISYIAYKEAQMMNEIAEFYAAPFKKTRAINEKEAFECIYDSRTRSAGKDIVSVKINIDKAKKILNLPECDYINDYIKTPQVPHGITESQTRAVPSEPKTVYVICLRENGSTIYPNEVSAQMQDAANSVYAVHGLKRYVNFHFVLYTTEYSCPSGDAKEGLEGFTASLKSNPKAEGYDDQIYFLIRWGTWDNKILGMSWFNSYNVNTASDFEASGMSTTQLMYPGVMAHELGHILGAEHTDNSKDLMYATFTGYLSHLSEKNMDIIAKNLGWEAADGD
Assay type: cell-based, Bacterioides fragilis

With NCCCCCN [cadaverine, 1,5-diaminopentane] the “Effect of Cadaverine, enterotoxicity in Ussing chambers” value was “completely” and the “ΔIsc + cadaverine” value was 21.5.
